Data as given in BigSolDB 2.1.

C=C(C)[C@@H]1CC[C@]2(CO)CC[C@]3(C)[C@H](CC[C@@H]4[C@@]5(C)CC[C@H](O)C(C)(C)[C@@H]5CC[C@]43C)[C@@H]12
solubility (mole fraction)
Conditions	in DMF	in NMP	in acetonitrile	in n-dodecane	in n-hexadecane	in n-nonanol	in n-octanol	in n-pentanol	in sec-butanol	in water
293.2 K	0.00208	0.00549	0.000269	1.5e-05	4.6e-05	0.00217	0.0016	0.000894	0.000701	4e-06
298.2 K	0.00244	0.00569	0.000473	1.6e-05	5.3e-05	0.00234	0.00162	0.00096	0.000728	5e-06
303.2 K	0.00294	0.0059	0.000697	1.9e-05	5.7e-05	0.00254	0.00179	0.00108	0.000813	6e-06
308.2 K	0.00334	0.00615	0.00104	2.3e-05	6.5e-05	0.00292	0.00186	0.0012	0.000845	9e-06
313.2 K	0.00368	0.00635	0.00137	2.5e-05	7.6e-05	0.00324	0.00209	0.00132	0.000941	1.4e-05
318.2 K	0.00426	0.00653	0.00193	3e-05	8.3e-05	0.00371	0.00229	0.00149	0.00108	1.8e-05
323.2 K	0.00461	0.00676	0.00244	3.5e-05	9.8e-05	0.00431	0.00269	0.00175	0.0012	2.5e-05
328.2 K	0.00518	0.00697	0.00341	4.5e-05	0.000117	0.0051	0.00341	0.00198	0.00148	3.3e-05

C[C@@H]1CC[C@@]2(OC1)O[C@H]1C[C@H]3[C@@H]4CC=C5C[C@@H](O)CC[C@]5(C)[C@H]4CC[C@]3(C)[C@H]1[C@@H]2C
in n-pentanol
Conditions	solubility (mole fraction)
293.2 K	0.00462
298.2 K	0.0051
303.2 K	0.00621
308.2 K	0.0075
313.2 K	0.00866
318.2 K	0.0102
323.2 K	0.0122
328.2 K	0.0148
